Broadly, the MIC is the least concentration at which growth counts as inhibited. Broadly, the HC50 is the concentration that lyses half of the red blood cells. One may read the CC50 as the concentration that lowers cell viability or growth by half. Low values mean harm at low concentration, high ones better tolerance by the cells.

Experimental findings from ChEMBL document CHEMBL6115036, “Exploration of membrane-active cephalosporin derivatives as potent antibacterial agents against Staphylococcus aureus biofilms and persisters” (Eur J Med Chem, 2025) are described below.

Series [1] relates to Staphylococcus aureus. Briefly: Induction of resistance development in norfloxacin-resistant Staphylococcus aureus assessed as fold increase in MIC at sub-MIC measured after 20 passages relative to control. The format is functional.
The test system of series [2] is Staphylococcus aureus. As to the kind of experiment: Antibacterial activity against rifampicin-induced persistant Staphylococcus aureus assessed as decrease in CFU at 100 times MIC measured for 10 hrs. The format is functional, organism-based.
Series [3] relates to Staphylococcus aureus. As to the kind of experiment: Induction of resistance development in Staphylococcus aureus assessed as fold increase in MIC at sub-MIC measured after 20 passages relative to control. The format is functional.
The subject of the next series is Enterococcus faecalis. Briefly: Antimicrobial activity against Enterococcus faecalis incubated for 16 to 18 hrs by broth dilution assay. The format is functional. The note with it: time 16-18 hrs.
For series [4], the system named is Staphylococcus aureus. Briefly: Antimicrobial activity against Staphylococcus aureus incubated for 16 to 18 hrs by broth dilution assay. The format is functional. The note with it: time 16-18 hrs. In general terms: Dilution methods test growth across graded concentrations, often in twofold steps.
For series [5], the system named is Stenotrophomonas maltophilia. Briefly: Antimicrobial activity against Stenotrophomonas maltophilia incubated for 16 to 18 hrs by broth dilution assay. The format is functional. The conditions noted are these: time 16-18 hrs.
The test system of another series is Escherichia coli. As to the kind of experiment: Antimicrobial activity against Escherichia coli incubated for 16 to 18 hrs by broth dilution assay. The format is functional. The conditions noted are these: time 16-18 hrs.
Series [6] in a line: Hemolytic activity in sheep red blood cells incubated for 1 hr. The format is toxicity, cell-based, Ovis aries, Erythrocyte.
The subject of series [7] is Staphylococcus aureus. Briefly: Induction of cytoplasmic membrane depolarization in Staphylococcus aureus assessed as increase in fluorescence intensity at 32 ug/ml measured for 20 mins by DiSC3(5) dye based analysis. The conditions noted are these: dose 32.0 µg/ml. The format is functional, organism-based.
The subject of series [8] is Staphylococcus aureus. Briefly: Induction of inner membrane permeability in Staphylococcus aureus assessed as increase in fluorescence intensity at 32 ug/ml measured for 20 mins by PI dye based analysis. The format is functional, organism-based. The note with it: dose 32.0 µg/ml.
The test system of series [9] is Staphylococcus aureus. As to the kind of experiment: Disruption of cell membrane in Staphylococcus aureus assessed as nucleic acid leakage at 32 ug/ml measured after 2 hrs by fluorescence based analysis. The conditions noted are these: dose 32.0 µg/ml. The format is functional, organism-based.
In series [10] the test system is Staphylococcus aureus. Briefly: Disruption of cell membrane in Staphylococcus aureus assessed as protein leakage at 32 ug/ml measured after 2 hrs by fluorescence based analysis. The format is functional, organism-based. The note with it: dose 32.0 µg/ml.
For series [11], the system named is Staphylococcus aureus. Briefly: Antibacterial activity against Staphylococcus aureus assessed as effect on quiescent cells at 100 to 200 times MIC incubated for 24 hrs. The format is functional, organism-based.
In series [12] the test system is Staphylococcus aureus. As to the kind of experiment: Antibacterial activity against Staphylococcus aureus assessed as fold increase in MIC in presence of 50% sheep plasma. The format is functional.
The test system of series [13] is Staphylococcus aureus. As to the kind of experiment: Antibacterial activity against Staphylococcus aureus assessed as fold increase in MIC in presence of 50% FBS. The format is functional.
Series [14] has as its system Staphylococcus aureus. Briefly: Induction of intracellular ROS accumulation in Staphylococcus aureus incubated overnight by DCFH-DA dye based analysis. The format is functional, organism-based.
Series [15] is described as follows: Cytotoxicity against human HeLa cells incubated for 24 hrs by CCK8 assay. The format is toxicity, cell-based.
Series [16] is described as follows: Cytotoxicity against HUVEC cells incubated for 24 hrs by CCK8 assay. The conditions noted are these: human. The format is toxicity, cell-based. On the technique in general: Tetrazolium dyes change colour on reduction, which living cells bring about.
For series [17], the system named is Staphylococcus aureus. As to the kind of experiment: Induction of cytoplasmic membrane depolarization in Staphylococcus aureus assessed as increase in fluorescence intensity measured for 20 mins by DiSC3(5) dye based analysis. The format is functional, organism-based.
The test system of series [18] is Staphylococcus aureus. Briefly: Induction of inner membrane permeability in Staphylococcus aureus assessed as increase in fluorescence intensity measured for 20 mins by PI dye based analysis. The format is functional, organism-based.
In series [19] the test system is Staphylococcus aureus. Briefly: Inhibition of biofilm formation in Staphylococcus aureus assessed as reduction in number of live bacterial count at 16 times MIC incubated for 24 hrs. The format is functional.

Each structure is given as a SMILES string. Values after ≈ are worked out from the molar mass of the structure shown. Active and inactive are the calls of the source. The calls are words filed in the database; no cut-off is given here.

As to `O=C(O)c1cn(C2CC2)c2cc(N3CCNCC3)c(F)cc2c1=O` [CIPROFLOXACIN], in the series on Staphylococcus aureus [1], the “fold change (FC)” value came to 64. Moreover, the outcome in the series on Staphylococcus aureus [2] was inactive.
Take `CCn1cc(C(=O)O)c(=O)c2cc(F)c(N3CCNCC3)cc21` [NORFLOXACIN]: the “fold change (FC)” value with Staphylococcus aureus [3] and in the series with Staphylococcus aureus [1] was 64 in each case.
Regarding `CCCCCCCCCCCC[n+]1ccc(-c2cc[n+](CC3=C(C(=O)[O-])N4C(=O)[C@@H](NC(=O)Cc5ccccc5)[C@H]4SC3)cc2)cc1.O=C([O-])C(F)(F)F`, the MIC in the series on Enterococcus faecalis is 4 µg/mL; against Staphylococcus aureus [4] it was 0.25 µg/mL; in series [5] it was greater than 128 µg/mL; with Escherichia coli, 128 µg/mL. In addition, the HC50 at 1 h in [6] was determined as 333 µg/mL. In addition, the result in the series with Staphylococcus aureus [7] and in the series with Staphylococcus aureus [8] was Active. Besides, the result in the series with Staphylococcus aureus [9] and with Staphylococcus aureus [10] was inactive.
Consider `CCCCCCCCCCCC[n+]1ccc(-c2cc[n+](CC3=C(C(=O)OCc4ccc(OC)cc4)N4C(=O)[C@@H](NC(=O)Cc5ccccc5)[C@H]4SC3)cc2)cc1.[I-].[I-]`, for which the minimal inhibitory concentration (MIC) was 4 µg/mL with Enterococcus faecalis, 1 µg/mL in the series on Staphylococcus aureus [4], 32 µg/mL in series [5] and 32 µg/mL in the series with Escherichia coli. The compound further gave an HC50 at 1 h in series [6] of 273 µg/mL. The outcome with Staphylococcus aureus [7] and in the series on Staphylococcus aureus [8] was Active.
`CO/N=C(\C(=O)N[C@@H]1C(=O)N2C(C(=O)O)=C(COC(C)=O)CS[C@H]12)c1csc(N)n1`: the outcome in the series on Staphylococcus aureus [11] and in the series with Staphylococcus aureus [2] was inactive.
Regarding `CCCCCCCCCCCCCCCC[n+]1ccc(-c2cc[n+](CC3=C(C(=O)OCc4ccc(OC)cc4)N4C(=O)[C@@H](NC(=O)Cc5ccccc5)[C@H]4SC3)cc2)cc1.[I-].[I-]`, the MIC was found to be 8 µg/mL with Enterococcus faecalis, 4 µg/mL against Staphylococcus aureus [4], 128 µg/mL in series [5] and 128 µg/mL with Escherichia coli. Moreover, in [6], the HC50 at 1 h amounted to 109 µg/mL. Besides, the result in the series with Staphylococcus aureus [7] and in the series on Staphylococcus aureus [8] was Active.
In the case of `CC[C@H](C)[C@H](NC(=O)CN)C(=O)NCC(=O)N[C@@H](C)C(=O)N[C@H](C(=O)N[C@@H](CC(C)C)C(=O)N[C@@H](CCCCN)C(=O)N[C@H](C(=O)N[C@@H](CC(C)C)C(=O)N[C@H](C(=O)N[C@H](C(=O)NCC(=O)N[C@@H](CC(C)C)C(=O)N1CCC[C@H]1C(=O)N[C@@H](C)C(=O)N[C@@H](CC(C)C)C(=O)N[C@H](C(=O)N[C@@H](CO)C(=O)N[C@@H](Cc1c[nH]c2ccccc12)C(=O)N[C@H](C(=O)N[C@@H](CCCCN)C(=O)N[C@@H](CCCNC(=N)N)C(=O)N[C@@H](CCCCN)C(=O)N[C@@H](CCCNC(=N)N)C(=O)N[C@@H](CCC(N)=O)C(=O)N[C@@H](CCC(N)=O)C(N)=O)[C@@H](C)CC)[C@@H](C)CC)[C@@H](C)O)[C@@H](C)O)C(C)C)C(C)C` [MELITTIN], the figures for the MIC (in the series on Enterococcus faecalis; in [5]) were 2 µg/mL (≈ 0.703 µM) and 8 µg/mL (≈ 2.81 µM), respectively. In addition, the “fold change (FC)” value in the series with Staphylococcus aureus [12] and with Staphylococcus aureus [13] was greater than 32 each time. In addition, the Activity result in the series with Staphylococcus aureus [14] is “Dose-dependent-effect”. Further, the CC50 at 24 h in series [15] amounted to 3.9 µg/mL (≈ 1.37 µM); in series [16], 3.8 µg/mL (≈ 1.33 µM).
As for `CO[C@H]1/C=C/O[C@@]2(C)Oc3c(C)c(O)c4c(O)c(c(/C=N/N5CCN(C)CC5)c(O)c4c3C2=O)NC(=O)/C(C)=C\C=C\[C@H](C)[C@H](O)[C@@H](C)[C@@H](O)[C@@H](C)[C@H](OC(C)=O)[C@@H]1C`, in the series with Staphylococcus aureus [2], the result was inactive.
For the compound `CCCCCCCCCC[n+]1ccc(-c2cc[n+](CC3=C(C(=O)OCc4ccc(OC)cc4)N4C(=O)[C@@H](NC(=O)Cc5ccccc5)[C@H]4SC3)cc2)cc1.[I-].[I-]`, the minimal inhibitory concentration (MIC) worked out at 16 µg/mL in the series on Enterococcus faecalis, 0.5 µg/mL against Staphylococcus aureus [4], 128 µg/mL in [5] and 128 µg/mL against Escherichia coli. In series [6], this compound returned an HC50 at 1 h greater than 1280 µg/mL. The result in the series on Staphylococcus aureus [7] and with Staphylococcus aureus [8] was Active.
With `CC(=O)NC[C@H]1CN(c2ccc(N3CCOCC3)c(F)c2)C(=O)O1` [LINEZOLID], in the series with Staphylococcus aureus [1], the “fold change (FC)” value turned out to be 4.
Consider `CCCCCCCC[n+]1ccc(C(=O)N[C@@H]2C(=O)N3C(C(=O)O)=C(COC(C)=O)CS[C@H]23)cc1.[I-]`, for which the MIC (against Enterococcus faecalis; with Staphylococcus aureus [4]; in [5]; in the series on Escherichia coli) was greater than 128 µg/mL each time. Moreover, the outcome with Staphylococcus aureus [17] and with Staphylococcus aureus [18] was inactive.
For the compound `C[C@H]1COc2c(N3CCN(C)CC3)c(F)cc3c(=O)c(C(=O)O)cn1c23` [LEVOFLOXACIN ANHYDROUS], the “fold change (FC)” value in the series on Staphylococcus aureus [1] is 16.
Regarding `CN[C@H](CC(C)C)C(=O)N[C@H]1C(=O)N[C@@H](CC(N)=O)C(=O)N[C@H]2C(=O)N[C@H]3C(=O)N[C@H](C(=O)N[C@H](C(=O)O)c4cc(O)cc(O)c4-c4cc3ccc4O)[C@H](O)c3ccc(c(Cl)c3)Oc3cc2cc(c3O[C@@H]2O[C@H](CO)[C@@H](O)[C@H](O)[C@H]2O[C@H]2C[C@](C)(N)[C@H](O)[C@H](C)O2)Oc2ccc(cc2Cl)[C@H]1O` [VANCOMYCIN], the Activity with Staphylococcus aureus [19] is ~1 10^5CFU/ml. Further, the minimal inhibitory concentration (MIC) against Enterococcus faecalis was 2 µg/mL (≈ 1.38 µM). Also, the HC50 at 1 h in [6] is greater than 1280 µg/mL.
